One assay concerns MCF-7 cells. As to the kind of experiment: MCF7 Viability Assay (Breast Cancer Cell Viability Assay). In kind it is cell-based. The note with it: 5 days' compound exposure, CellTiter-Glo; for pIC50: Homo sapiens, MCF7, 120 h. As for the experimental part:
MCF-7 cells were adjusted to a concentration of 20,000 cells per mL in RPMI containing 10% FBS and 20 mM HEPES. 16 microliters of the cell suspension (320 cells) was added to each well of a 384 well plate, and the cells were incubated overnight to allow the cells to adhere. The following day an eleven point, serial semilog dilution of each compound was added to the cells in 16 μL at a final concentration ranging from 0.3-0.000003 μM. After 5 days' compound exposure, 16 μL of CellTiter-GLo (Promega, Madison Wis.) was added to the cells, and the relative luminescence units (RLUs) of each well were determined. CellTiter-Glo added to 32 μL of medium without cells was used to obtain a background value. The Percent viability of each sample was determined as follows: (RLU sample-RLU background/RLU untreated cells-RLU background)×100=% viability.

Another assay has as its target T1, ER-α (Homo sapiens, UniProt P03372).
T1 construct: endogenous in cells; host or cells: MCF-7
T1 sequence (P03372 1-595): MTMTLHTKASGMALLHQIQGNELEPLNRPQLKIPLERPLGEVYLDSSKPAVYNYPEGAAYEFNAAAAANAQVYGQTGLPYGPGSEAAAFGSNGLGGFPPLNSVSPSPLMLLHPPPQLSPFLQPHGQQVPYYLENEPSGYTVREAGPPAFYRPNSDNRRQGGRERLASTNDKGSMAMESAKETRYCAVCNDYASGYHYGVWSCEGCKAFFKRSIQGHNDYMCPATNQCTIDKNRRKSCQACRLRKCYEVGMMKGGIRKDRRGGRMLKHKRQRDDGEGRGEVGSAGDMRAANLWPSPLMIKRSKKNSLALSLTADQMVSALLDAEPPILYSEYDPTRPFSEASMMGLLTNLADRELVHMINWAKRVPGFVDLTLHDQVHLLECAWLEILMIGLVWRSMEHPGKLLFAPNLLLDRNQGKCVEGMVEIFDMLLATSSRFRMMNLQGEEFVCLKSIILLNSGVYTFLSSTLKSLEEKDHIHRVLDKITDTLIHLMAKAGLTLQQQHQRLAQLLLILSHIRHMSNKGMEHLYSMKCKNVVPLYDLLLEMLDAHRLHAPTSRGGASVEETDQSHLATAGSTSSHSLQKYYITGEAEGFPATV
As to the kind of experiment: Breast Cancer Cell ER-α In Cell Western Assay (SP1). The class given is cell-based. The note with it: MCF-7 cells, 4 or 24 hr post compound addition, SP1 antibody; for Emax: MCF7, read-out: ER-α In Cell Western Assay (SP1) Max Response; for DC50: read-out: ER-α In Cell Western Assay (SP1) IC50. As for the experimental part:
MCF-7 cells were adjusted to a concentration of 200,000 cells per mL in RPMI containing 10% charcoal-stripped FBS and 20 mM HEPES. 16 microliters of the cell suspension (3200 cells) was added to each well of a poly-D-lysine 384 well plate, and the cells were incubated overnight to allow the cells to adhere. The following day an eleven point, serial semilog dilution of each compound was added to the cells in 16 μL at a final concentration ranging from 0.3-0.000003 μM. At 4 or 24 hr post compound addition, the cells were fixed (10% formalin in PBS) for 20 minutes. Cells were permeablized in PBS 0.1% Triton and blocked with LICOR blocking buffer (50 μl/well, 90′). The wells were then incubated overnight at 4° C. with SP1 rabbit monoclonal Ab (Thermo Scientific) diluted 1:1000 in LICOR blocking buffer/0.1% Tween-20. Wells which were treated with blocking buffer with Tween but no antibody were used as a background control. Wells were washed with 0.1% Tween-20/PBS and then incubated in goat anti-rabbit IRDye™ 800 CW (LICOR Inc.; 1:10000) and DRAQ5 DNA dye (1:2000 for 2 mM stock) diluted in LICOR blocking buffer containing 0.1% Tween-20 and 0.01% SDS for 60 minutes. Cells were washed (50 μl/well, 5′ each) in 0.1% Tween-20/PBS. Plates were scanned on a LICOR Odyssey infrared imaging system. Integrated intensities in the 800 nm channel and 700 nm channel were measured to determine levels of ER and DNA respectively. Percent ER levels were determined as follows: (Integrated intensity 800 nm sample/integrated intensity 700 nm sample)/(Integrated intensity 800 nm untreated cells/integrated intensity 700 nm untreated cells)×100=% ER levels.

Structures are written as SMILES. pIC50: −log10 of the molar value.

We go through 15 molecules from patent US9586952B2, “Polycyclic estrogen receptor modulators and uses thereof” (SERAGON PHARMACEUTICALS, INC., priority 2013, dated 2017).

With `COc1ccc(/C(=C(\c2ccc(/C=C/C(=O)O)cc2)c2ccc(N3CCOCC3)cc2)C2CCC2)c(C)c1` [Example 47, (E)-3-(4-((E)-2-Cyclobutyl-2-(4-methoxy-2-methylphenyl)-1-(4-morpholinophenyl)vinyl)phenyl)acrylic acid], in the assay on MCF-7 cells, the “MCF7 Viability Assay Max Response” value is recorded as “++ (++ = a single % value ≧ 40%)” and the pIC50 is at least 7.00. On ER-α, the Emax was at least 40% and the DC50 is at most 100 nM.

As for `CC/C(=C(/c1ccc(/C=C/C(=O)O)cc1)c1ccc(-c2cnco2)cc1)c1ccccc1` [Example 18, (E)-3-(4-((E)-1-(4-(Oxazol-5-yl)phenyl)-2-phenylbut-1-en-1-yl)phenyl)acrylic acid], in the assay with MCF-7 cells, the “MCF7 Viability Assay Max Response” value is recorded as “++ (++ = a single % value ≧ 40%)” and the pIC50 was at least 7.00. Also, at ER-α, the Emax is at least 40% and the DC50 is at most 100 nM.

Turning to `Cc1cscc1/C(=C(\c1ccc(/C=C/C(=O)O)cc1)c1ccc(-c2cnn(CCO)c2)cc1)C1CCC1` [Example 68, (E)-3-(4-((E)-2-Cyclobutyl-1-(4-(1-(2-hydroxyethyl)-1H-pyrazol-4-yl)phenyl)-2-(4-methylthiophen-3-yl)vinyl)phenyl)acrylic acid], in the assay on MCF-7 cells, the “MCF7 Viability Assay Max Response” value is recorded as “++ (++ = a single % value ≧ 40%)” and the pIC50 is at least 7.00. In addition, on ER-α, the Emax was at least 40% and the DC50 was at most 100 nM.

For the molecule `Cc1cccnc1/C(=C(\c1ccc(/C=C/C(=O)O)cc1)c1ccc(-c2cn[nH]c2)cc1)C1CCC1` [Example 40, (E)-3-(4-((E)-1-(4-(1H-Pyrazol-4-yl)phenyl)-2-cyclobutyl-2-(3-methylpyridin-2-yl)vinyl)phenyl)acrylic acid], in the assay on MCF-7 cells, the “MCF7 Viability Assay Max Response” value is reported as “++ (++ = a single % value ≧ 40%)” and the pIC50 is below 7.00. At ER-α, the Emax was at least 40% and the DC50 is at most 100 nM.

Regarding `COc1ccc(/C(=C(\c2ccc(/C=C/C(=O)O)cc2)c2ccc(-c3cncs3)cc2)C2CCC2)c(Cl)c1` [Example 53, (E)-3-(4-((E)-2-(2-Chloro-4-methoxyphenyl)-2-cyclobutyl-1-(4-(thiazol-5-yl)phenyl)vinyl)phenyl)acrylic acid], in the assay on MCF-7 cells, the “MCF7 Viability Assay Max Response” value is given as “++ (++ = a single % value ≧ 40%)” and the pIC50 was at least 7.00. At ER-α, the Emax was at least 40% and the DC50 was at most 100 nM.

With `O=C(O)/C=C/c1ccc(/C(=C(\c2ccc(F)cc2Cl)C2CCC2)c2ccc(-c3ccncc3)cc2)cc1` [Example 56, (E)-3-(4-((E)-2-(2-Chloro-4-fluorophenyl)-2-cyclobutyl-1-(4-(pyridin-4-yl)phenyl)vinyl)phenyl)acrylic acid], in the assay with MCF-7 cells, the “MCF7 Viability Assay Max Response” value is “++ (++ = a single % value ≧ 40%)” and the pIC50 was at least 7.00. Further, at ER-α, the Emax was at least 40% and the DC50 was at most 100 nM.

As for `N#Cc1ccc(/C(=C(\c2ccc(/C=C/C(=O)O)cc2)c2ccc(N3CCOCC3)cc2)C2CCC2)c(Cl)c1` [Example 45, (E)-3-(4-((E)-2-(2-Chloro-4-cyanophenyl)-2-cyclobutyl-1-(4-morpholinophenyl)vinyl)phenyl)acrylic acid], in the assay with MCF-7 cells, the “MCF7 Viability Assay Max Response” value was “++ (++ = a single % value ≧ 40%)” and the negative logarithm of the IC50 (pIC50) is at least 7.00. Also, on ER-α, the Emax was at least 40% and the DC50 is at most 100 nM.

Turning to `O=C(O)/C=C/c1ccc(/C(=C(\c2ccc(F)cc2Cl)C2CCC2)c2ccc(-c3cncs3)cc2)cc1` [Example 33, (E)-3-(4-((E)-2-(2-Chloro-4-fluorophenyl)-2-cyclobutyl-1-(4-(thiazol-5-yl)phenyl)vinyl)phenyl)acrylic acid], in the assay on MCF-7 cells, the “MCF7 Viability Assay Max Response” value was “++ (++ = a single % value ≧ 40%)” and the pIC50 is at least 7.00. On ER-α, the Emax was at least 40% and the DC50 is at most 100 nM.

Regarding `Cc1cscc1/C(=C(\c1ccc(/C=C/C(=O)O)cc1)c1ccc(-c2cn[nH]c2)cc1)C1CCC1` [Example 38, (E)-3-(4-((E)-1-(4-(1H-Pyrazol-4-yl)phenyl)-2-cyclobutyl-2-(4-methylthiophen-3-yl)vinyl)phenyl)acrylic acid], in the assay on MCF-7 cells, the “MCF7 Viability Assay Max Response” value is reported as “++ (++ = a single % value ≧ 40%)” and the pIC50 is at least 7.00. Moreover, on ER-α, the Emax was at least 40% and the DC50 is at most 100 nM.

On to `CC/C(=C(/c1ccc(/C=C/C(=O)O)cc1)c1ccc(-c2cccnc2)cc1)c1ccccc1` [Example 14, (E)-3-(4-((E)-2-Phenyl-1-(4-(pyridin-3-yl)phenyl)but-1-en-1-yl)phenyl)acrylic acid], for which, in the assay with MCF-7 cells, the “MCF7 Viability Assay Max Response” value was “++ (++ = a single % value ≧ 40%)” and the pIC50 is below 7.00. For the same molecule, on ER-α, the Emax was at least 40% and the DC50 is at most 100 nM.

In the case of `O=C(O)/C=C/c1ccc(/C(=C(\c2ncc(C(F)(F)F)cc2Cl)C2CCC2)c2ccc(-c3cn[nH]c3)cc2)cc1` [Example 58, (E)-3-(4-((E)-1-(4-(1H-Pyrazol-4-yl)phenyl)-2-(3-chloro-5-(trifluoromethyl)pyridin-2-yl)-2-cyclobutylvinyl)phenyl)acrylic acid], in the assay with MCF-7 cells, the “MCF7 Viability Assay Max Response” value is reported as “++ (++ = a single % value ≧ 40%)” and the pIC50 was at least 7.00. For the same molecule, on ER-α, the Emax was at least 40% and the DC50 is at most 100 nM.

Regarding `O=C(O)/C=C/c1ccc(/C(=C(\c2ccccc2)C2CCC2)c2ccc(-c3cncs3)cn2)cc1` [Example 25, (E)-3-(4-((E)-2-Cyclobutyl-2-phenyl-1-(5-(thiazol-5-yl)pyridin-2-yl)vinyl)phenyl)acrylic acid], in the assay on MCF-7 cells, the “MCF7 Viability Assay Max Response” value is given as “++ (++ = a single % value ≧ 40%)” and the pIC50 is below 7.00. For the same molecule, at ER-α, the Emax was at least 40% and the DC50 was above 100 nM.

In the case of `O=C(O)/C=C/c1ccc(/C(=C(\c2ccccc2)C2CCC2)c2cccc(-c3cn[nH]c3)c2)cc1` [Example 26, (E)-3-(4-((E)-1-(3-(1H-Pyrazol-4-yl)phenyl)-2-cyclobutyl-2-phenylvinyl)phenyl)acrylic acid], in the assay on MCF-7 cells, the “MCF7 Viability Assay Max Response” value was “+ (+ = a single % value < 40%)” and the pIC50 is below 7.00. Moreover, at ER-α, the Emax is at least 40% and the DC50 was above 100 nM.

For `COc1cc(C)c(/C(=C(\c2ccc(/C=C/C(=O)O)cc2)c2ccc(-c3cn[nH]c3)cc2)C2CCC2)cn1` [Example 61, (E)-3-(4-((E)-1-(4-(1H-Pyrazol-4-yl)phenyl)-2-cyclobutyl-2-(6-methoxy-4-methylpyridin-3-yl)vinyl)phenyl)acrylic acid], in the assay on MCF-7 cells, the “MCF7 Viability Assay Max Response” value is “++ (++ = a single % value ≧ 40%)” and the pIC50 was at least 7.00. Also, at ER-α, the Emax was at least 40% and the DC50 is at most 100 nM.

For the molecule `N#Cc1cc(Cl)ccc1/C(=C(\c1ccc(/C=C/C(=O)O)cc1)c1ccc(-c2cncs2)cc1)C1CCC1` [Example 62, (E)-3-(4-((E)-2-(4-Chloro-2-cyanophenyl)-2-cyclobutyl-1-(4-(thiazol-5-yl)phenyl)vinyl)phenyl)acrylic acid], in the assay with MCF-7 cells, the “MCF7 Viability Assay Max Response” value was “++ (++ = a single % value ≧ 40%)” and the pIC50 is at least 7.00. In addition, at ER-α, the Emax is at least 40% and the DC50 is at most 100 nM.
